The values that follow come from patent US7892833B2, “Using inhibitors of histone deacetylases for the suppression therapy of inherited disease predisposing conditions” (TopoTarget Germany AG, priority 2003, dated 2011).

Entries after “also recorded” stand apart in the source; their conditions may differ.

Data set [1] concerns cell lines with proven mutations of crucial genes. The data set is described as follows: Cell viability assay (MTT test). Type of data set: cell-based. To be noted: 0.5 to 3 mM, 40 h to 70 h, all the cell lines tested, vs. untreated cells. The method, then:
In FIG. 1 cell lines are listed with proven mutations of crucial genes which in an inherited way establish a condition that predisposes a person to develop a disorder. The cells were grown in the respective medium as described in FIG. 1.
The cell lines listed in table 1 were seeded in 96 well plates at a density of 1×10^4 cells/well in normal growth medium. 2-propyl pentanoic acid was added at final concentrations between 0.5 and 3 mM to triplicate samples and the cells were incubated for 40 h to 70 h. Control cells were grown in the absence of 2-propyl pentanoic acid. Ten μl of 10 mg/ml 3-(4,5-dimethylthiazole-2-yl)-2,5 diphenyltetrazolium bromide (MTT) (Sigma, Deisenhofen, Germany) in PBS were added to each well and the cells were incubated for another 3 h. Cells were lysed by the addition of 90 μl of lysis buffer (20% SDS in 50% dimethyl formamide, pH 4.7). After solubilization of the formazan product, the absorption at 590 nm was determined in a microplate reader (Dynatech, Denkendorf, Germany) and the relative amount of viable cells in comparison to cells grown without the addition of 2-propyl pentanoic acid was determined.
For orientation: Tetrazolium dyes change colour on reduction, which living cells bring about.

A further data set concerns C57BL/6J-APC^min mice. The data set is described as follows: APC^min mouse model, adenoma count after four weeks of treatment. Format: in vivo. The method, then: Ten to sixteen weeks old age- and sex-matched heterozygous C57BL/6J-APC^min mice (Jackson Laboratories, Bar Harbor, Me.) were either left untreated or were treated with 2-PPA or Celecoxib. Control animal were injected (i.p.) with PBS. 2-PPA was injected as isotonic aequous solution of the sodium salt (2×400 mg/kg/day) for four weeks, while Celecoxib was fed to the animals ad libidum at 1250 ppm (0, 12%) for four weeks. At necropsy entire intestinal tracts were opened longitudinally and fixed in 10% phosphate buffered formaldehyde for 24 h. Polyp contrast was increased performing a 1 min staining in 0.1% methylene blue prior to determination of polyp numbers and sizes under a dissecting microscope by two independent observers unaware of the treatment that the mice had received.

Data set [2] relates to Human immortalized keratinocytes (HaCaT cells). Nature of the data set: Cytokine mRNA by semiquantitative RT-PCR in LPS-stimulated keratinocytes. Format: cell-based. Particulars: 4 h preincubation (200 nM TSA or 5 mM 2PPA), LPS 24 h; for level of IL-6 mRNA / level of TNF-α mRNA: vs. untreated stimulated control. The method, then:
Human immortalized keratinocytes (HaCaT cells) were seeded at a density of 2.5 million cells per ml into 75 cm^2 flasks. […] After 24 hours at 37° C. cells were lysed and total RNA was isolated using the RNeasy mini kit from Qiagen.
(§1) One microgram of total RNA was transcribed to cDNA by standard methods using reverse transcriptase and an oligo-dT primer (Invitrogen). For semiquantitative PCR, 2 μl of cDNA was amplified by PCR using specific primers. Primers for PCR were synthesized by MWG and are as follows: […]

Data set [3] deals with Peripheral blood lymphocytes (PBL's). Nature of the data set: Cytokine mRNA by semiquantitative RT-PCR in PMA/Ion-stimulated PBLs. To be noted: for IL-6 mRNA / PMA/Ion mediated stimulation of IL-4 mRNA: 2 h preincubation, PMA/Ion 24 h; for modulation of cytokine expression: PMA/Ion, FIGS. 4A and B. Format: cell-based, human. The method, then: (§2) Monocyte and macrophage depleted peripheral blood mononuclear cells were obtained from consenting adults via separation using Ficoll-Hypaque. The peripheral blood mononuclear cells (PBMC) fraction was washed and seeded in 9 cm petri dishes. After an incubation of 2 hours at 37° C. to remove most of the monocytes, macrophages, and B-cells, the non-adherent cells were collected and cultured in 175cm^2 flasks for 2 days. Cells were harvested and adjusted to 3 million cells per ml. Aliquots of 500μl were transferred to each well of 24-well flat bottom plates. Peripheral blood lymphocytes (PBL's) were treated with various concentrations of HDAC inhibitors as indicated. After a 2 hour incubation time at 37°C cells were stimulated with phorbol 12-myristate 13-acetate (PMA) / ionomycin (Ion) or activated via T cell receptor (TCR/CD3) complex with 10μg/m1 anti-CD3 mAb (OKT3) and 2.5μg/ml anti-CD28 mAb. After 24 hours at 37° C. the supernatant was removed and frozen for cytokine assays. Cell pellets were lysed and total RNA was isolated using the RNeasy mini kit from Qiagen.
as §1

The subject of the next data set is IL-2. The data set is described as follows: IL-2 ELISA of PBL supernatants. To be noted: for secretion of IL-2 / concentration of maximal inhibition of IL-2 expression: CD3/CD28; for secretion of IL-2 / IL-2 secretion, dose-response / concentration of maximal inhibition of IL-2 expression: FIG. 6; for IL-2 secretion, dose-response / concentration of maximal inhibition of IL-2 expression: PBLs; for IL-2 secretion, dose-response: 2 h preincubation, CD3 and CD28 mAbs 24 h. Type of data set: cell-based, human. The method, then: as §2
(§3) To perform ELISA's, supernatants of treated and untreated PBL's were collected and IL-2 as well as TNF-α were measured using the Duo Set ELISA Development System (R&D Systems) as described by the manufacturer.
(In an ELISA, binding on a coated surface is turned into a signal by an enzyme label.)

Another data set has as its system TNF-α. The data set is described as follows: TNF-α ELISA of PBL supernatants. To be noted: for TNF-α secretion, dose-response / concentration of maximal inhibition of TNF-α expression: PBLs, FIG. 6; for TNF-α secretion, dose-response: 2 h preincubation, CD3 and CD28 mAbs 24 h; for concentration of maximal inhibition of TNF-α expression: CD3/CD28. Format: cell-based, human. The method, then: as §2, §3

Data set [4] concerns Acetylated histones H3 and H4 and the marker gene HDAC-2. Nature of the data set: Western blot of peripheral blood cells from patients treated with 2PPA (phase I/II). Particulars: 2PPA intravenously, before, 6 h, 24 h, 48 h. Type of data set: in vivo, human. The method, then:
Whole cell extracts were prepared by lysis of cells in RIPA buffer including protease inhibitors. Lysates were separated by SDS gel electrophoresis and transferred onto PVDF membranes. Acetylated histones H3 and H4 and the marker gene HDAC-2 were detected by western blot analysis using an anti-acetylated H3 antibody (Upstate, #06-942), an anti-acetylated H4 antibody (clon T25; patent application EP 02.021984.6), and an anti-HDAC-2 antibody (SCBT, SC-7899). As an equal loading control PVDF membranes were stained with Coomassie (FIG. 9).
In general terms: A western blot detects proteins with antibodies after separation by electrophoresis.

Another data set has as its system Peripheral blood cells. Nature of the data set: Cytokine ELISA and RT-PCR in peripheral blood cells from a patient treated with 2PPA. Type of data set: in vivo, human. The method, then:
The cells were either left unstimulated or stimulated with CD3 and CD28 antibodies. After 24 hours at 37° C. the supernatant was collected and the secretion of IL-2 and TNF-α was quantified by ELISA (R&D Systems) (FIGS. 10A and B).
Total RNA from unstimulated and CD3/CD28 stimulated cells was isolated using the RNeasy mini kit (Qiagen). One microgram of total RNA was converted to cDNA by standard methods using reverse transcriptase and an oligo-dT primer (Invitrogen). For semiquantitative PCR, 2 μl of cDNA were amplified by PCR using the specific primers as described above (FIG. 10C).

The conditions of data set [5]: EP application No. 03014278.0; cited from earlier work.
The subject of data set [6] is stage III/IV non-small cell lung cancer. Particulars: monotherapy; Keer et al., 2002; cited from earlier work.
Another data set deals with PPARδ. To be noted: cited from earlier work.
For data set [7], the system named is acute promyelocytic leukemia. To be noted: PML-RAR patient with multiple relapses after retinoic acid; Warrell et al., 1998; cited from earlier work.
[8] abbreviates: 1 mM, other experiments, PMA/ION and CD3/CD28, FIG. 7.
Setting [9] is: starting at 24 hours of 2PPA treatment.

Consider `CCCC(CCC)C(=O)O` [2PPA, 2-propyl-pentanoic acid], for which the “inhibition of cell viability” value in data set [1] is on record as 20-80%. Further, the “number of colorectal adenomas” value with C57BL/6J-APC^min mice (APC^min mice treated for 4 weeks, FIG. 2 legend) was “reduction in the number of colorectal adenomas”. The “number of adenomas in the small intestine” value with C57BL/6J-APC^min mice (four weeks, 2-PPA sodium salt i.p. 2×400 mg/kg/day, Celecoxib 1250 ppm in feed, FIG. 2A, 400 mg/kg/day) was “reduces adenoma formation; also recorded: clearly reduces the number of adenomas”. The “abnormalities in the gastrointestinal tract” value in the data set on C57BL/6J-APC^min mice (mouse, in vivo) is given as “did not show any abnormalities in the gastrointestinal tract”. Also, in data set [2], the “mRNA transcript of IFN-γ” value is “significantly reduced”, the “level of IL-6 mRNA” value is recorded as “significant decrease” and the “level of TNF-α mRNA” value is on record as “significant decrease”. For the same compound, in data set [3], the “IL-6 mRNA” value is recorded as “decreased IL-6 mRNA back to the level seen in the unstimulated sample” and the “PMA/Ion mediated stimulation of IL-4 mRNA” value is “significantly reduced”. Moreover, the “secretion of IL-2” value in the data set with IL-2 (0.5 mM) is “only moderate effect”. The “secretion of IL-2” value with IL-2 (1 mM) was “only moderate effect”. The IL-2 secretion entry in the data set with IL-2 (setting [8]) is reported as “significant decrease”. In addition, the “secretion of IL-2” value with IL-2 (5 mM) was “significantly reduced”. Also, the “IL-2 secretion, dose-response” value in the data set on IL-2 is reported as “dose-dependent inhibition”. In the data set on TNF-α (setting [8]), the TNF-α secretion entry is listed as “significant decrease”. Further, the “TNF-α secretion, dose-response” value with TNF-α was “dose-dependent inhibition”. In addition, in [4], the “Histone H3 and H4 acetylation in peripheral blood cells” value is “Histone H3 and H4 hyperacetylation”; the “marker protein HDAC-2 in peripheral blood cells” value is reported as “down-regulation of the marker protein HDAC-2”. For the same compound, in the data set on Peripheral blood cells (CD3/CD28 stimulated), the “IL-2 mRNA transcripts” value is listed as “decrease” and the “TNF-α mRNA transcripts” value was “decrease”. Moreover, in the data set on Peripheral blood cells (CD3/CD28 stimulated 24 h), the “IL-2 in the culture supernatant (ELISA)” value was “modulates the expression” and the “TNF-α in the culture supernatant (ELISA)” value is recorded as “modulates the expression”. In addition, in the data set on Peripheral blood cells (setting [9]), the “cytokine mRNA expression of IFN-γ” value is reported as “significantly reduced” and the “cytokine mRNA expression of IL-4” value is “significantly reduced”. Further, the skin permeation entry in [5] was “permeates human skin effectively”.
As for `Cc1ccc(-c2cc(C(F)(F)F)nn2-c2ccc(S(N)(=O)=O)cc2)cc1` [Celecoxib], the “abnormalities in the gastrointestinal tract” value in the data set with C57BL/6J-APC^min mice (APC^min mice after four weeks of treatment, FIG. 2B) was “intensely inflated stomach, small intestine, and colon”.
For the compound `O=C(CCC1CCCC1)NO` [G2M-701], the “modulation of cytokine expression” value in data set [3] is reported as “can modulate cytokine expression”. In the data set on IL-2, the “IL-2 secretion, dose-response” value is “dose-dependent inhibition” and the “concentration of maximal inhibition of IL-2 expression” value came out at 6 µM. Besides, in the data set with TNF-α, the “TNF-α secretion, dose-response” value is “dose-dependent inhibition” and the “concentration of maximal inhibition of TNF-α expression” value was found to be 6 µM.
As to `O=C(CCC1CCCCC1)NO` [G2M-702], the “modulation of cytokine expression” value in data set [3] is given as “can modulate cytokine expression”. Moreover, in the data set on IL-2, the “IL-2 secretion, dose-response” value is listed as “dose-dependent inhibition” and the “concentration of maximal inhibition of IL-2 expression” value was 3 µM. Also, in the data set with TNF-α, the “TNF-α secretion, dose-response” value is “dose-dependent inhibition” and the “concentration of maximal inhibition of TNF-α expression” value amounted to 3 µM.
On to `O=C(/C=C/C1CCCCC1)NO` [G2M-707], for which the “modulation of cytokine expression” value in data set [3] is listed as “can modulate cytokine expression”. For the same compound, in the data set with IL-2, the “IL-2 secretion, dose-response” value is “dose-dependent inhibition” and the “concentration of maximal inhibition of IL-2 expression” value is 1 µM. In the data set on TNF-α, the “TNF-α secretion, dose-response” value is reported as “dose-dependent inhibition” and the “concentration of maximal inhibition of TNF-α expression” value turned out to be 1 µM.
As to `CCCC(=O)OCOC(=O)C(C)(C)C` [Pivanex, Pivaloyloxymethyl butyrate], the clinical activity result in data set [6] is on record as “activity in stage III/IV non-small cell lung cancer”.
For `O=C(CCCCCCC(=O)Nc1ccccc1)NO` [SAHA, suberoylanilide hydroxamic acid], in [3], the “modulation of cytokine expression” value is “can modulate cytokine expression”.
Consider `CC(/C=C/C(=O)NO)=C\[C@@H](C)C(=O)c1ccc(N(C)C)cc1` [TSA, Trichostatin A], for which, in [2], the “mRNA transcript of IFN-γ” value was “virtually unaffected”, the “level of IL-6 mRNA” value is listed as “significant decrease” and the “level of TNF-α mRNA” value is on record as “significant decrease”. Besides, in data set [3], the “IL-6 mRNA” value is recorded as “only moderate effects” and the “PMA/Ion mediated stimulation of IL-4 mRNA” value is recorded as “significantly reduced”. In addition, the “activation of PPARδ” value in the data set on PPARδ was “activates PPARδ”.
Turning to phenylbutyrate, the clinical outcome in [7] is “complete remission of the leukemia”.
